According to patent US20260102407A1, “TREATMENT METHODS” (priority 2020, published 2026):
Several values for one entry are separate records, joined by “and”; a condition that tells them apart may be missing. Identical values can stand only once.

What was measured:
Balb/c mice = experiment: Toxicology, histopathology after intraperitoneal, intraarticular or gavage administration; details: for Eye (left and right), severity grade / Heart, severity grade / Kidney (left and right): inflammation, renal pelvis, severity grade / Liver: inflammation, peritoneal, severity grade / Liver: mineralisation, subcapsular, severity grade / Lung: osseous metaplasia, severity grade / Spleen, severity grade / Kidney (left and right): inflammation, interstitial, severity grade / Liver: inflammation, parenchymal, severity grade: Mouse 1-5
Procedure: Toxicology. Female Balb/c mice (8-9 week-old) were given 3 or 30 mg/kg BT2 (DMSO vehicle) via intraperitoneal injection (Days 0 and 5 in DMSO), oral gavage (Days 0-4 in DMSO/methylcellulose) or intraarticular injection (Day 0 in DMSO). Mice were euthanized after 8-11 d. Tissues was fixed in 10% formalin, processed routinely, sectioned at 4 μm and stained with hematoxylin and eosin.

FosB = experiment: Immunohistochemical staining of rat retina, FosB; assay type: in vivo; details: lasered rat retinas
Excerpt: Rat choroidal laser injury model. Male Brown Norway pigmented rats (8-14 week-old) were anesthetized by an intramuscular injection of Rompun® (xylazine)/Imalgene® (ketamine). Pupils were dilated by instillation of one drop of 0.5% tropicamide before laser burn. Six burns were created in both eyes on Day 0 by applying 170 mW of 532 nm laser light (Viridis laser, Quantel, France) on 75 μm spots around the optic nerve, between the main retinal vessel branches, for 0.1s, through the slit lamp and contact lens. Production of a bubble at the time of laser application confirmed the rupture of Bruch's membrane. […] After anaesthesia, 10% sodium fluorescein (250 μl/100 g body weight) was injected subcutaneously, and ocular fluorescence was recorded 10 min after dye injection. Fluorescein leakage was evaluated on Days 14 and 21 in the angiograms by two examiners masked to the study groups and graded for fluorescein intensity as follows: score 0: no leakage; 1: slightly stained; 2: moderately stained; 3: strongly stained.
Immunohistochemical staining of rat retina. […] IOD of positive staining (red chromogen) was assessed for CD31, VEGF-A165, pERK, FosB and VCAM-1 using Image-Pro Plus software (Cybernetics, Bethesda, MD). IOD in IPL and INL was quantified for CD31; OPL to OS for VEGF-A165; INL to ONL for pERK; GCL to OS for FosB; OLM for VCAM-1, using Image-Pro Plus. […]

[1] = Gavage BT2 3 mg/kg (Days 0-4), 3 mg/kg
[2] = IA BT2 3 mg/kg (Day 0), 3 mg/kg
[3] = IP BT2 3 mg/kg (Days 0 and 5), 3 mg/kg
[4] = IP BT2 30 mg/kg (Days 0 and 5), 30 mg/kg

SMILES: CCOC(=O)Nc1ccc2c(c1)C(=O)N(CC)c1ccccc1O2 [BT2, (10-ethyl-11-oxo-10,11-dihydro-dibenzo[b,f][1,4]oxazepin-2-yl)-carbamic acid ethyl ester]
- histopathological evidence of toxicity (Balb/c mice; Balb/c mice, 3 or 30 mg/kg, intraperitoneal, intraarticular or oral gavage): no histopathological evidence of toxic damage
- treated mice whose kidneys contained infrequent inflammatory foci (Balb/c mice; Balb/c mice, all BT2 groups, control one of 5): 4 of 30
- Eye (left and right), severity grade (Balb/c mice; Gavage BT2 3 mg/kg (Days 0-4)): 0
- Heart, severity grade (Balb/c mice; Gavage BT2 3 mg/kg (Days 0-4)): 0
- Kidney (left and right): inflammation, renal pelvis, severity grade (Balb/c mice; Gavage BT2 3 mg/kg (Days 0-4)): 0
- Liver: inflammation, peritoneal, severity grade (Balb/c mice; Gavage BT2 3 mg/kg (Days 0-4)): 0
- Liver: mineralisation, subcapsular, severity grade (Balb/c mice; Gavage BT2 3 mg/kg (Days 0-4)): 0
- Lung: osseous metaplasia, severity grade (Balb/c mice; Gavage BT2 3 mg/kg (Days 0-4)): 0
- Spleen, severity grade (Balb/c mice; Gavage BT2 3 mg/kg (Days 0-4)): 0
- Kidney (left and right): inflammation, interstitial, severity grade (Balb/c mice; [1]): 0 and 1
- Liver: inflammation, parenchymal, severity grade (Balb/c mice; [1]): 0 and 1
- Eye (left and right), severity grade (Balb/c mice; Gavage BT2 30 mg/kg (Days 0-4)): 0
- Heart, severity grade (Balb/c mice; Gavage BT2 30 mg/kg (Days 0-4)): 0
- Kidney (left and right): inflammation, interstitial, severity grade (Balb/c mice; Gavage BT2 30 mg/kg (Days 0-4)): 0
- Kidney (left and right): inflammation, renal pelvis, severity grade (Balb/c mice; Gavage BT2 30 mg/kg (Days 0-4)): 0
- Liver: inflammation, peritoneal, severity grade (Balb/c mice; Gavage BT2 30 mg/kg (Days 0-4)): 0
- Liver: mineralisation, subcapsular, severity grade (Balb/c mice; Gavage BT2 30 mg/kg (Days 0-4)): 0
- Lung: osseous metaplasia, severity grade (Balb/c mice; Gavage BT2 30 mg/kg (Days 0-4)): 0
- Spleen, severity grade (Balb/c mice; Gavage BT2 30 mg/kg (Days 0-4)): 0
- Liver: inflammation, parenchymal, severity grade (Balb/c mice; Gavage BT2 30 mg/kg (Days 0-4), 30 mg/kg): 1 and 0
- Eye (left and right), severity grade (Balb/c mice; IA BT2 3 mg/kg (Day 0)): 0
- Heart, severity grade (Balb/c mice; IA BT2 3 mg/kg (Day 0)): 0
- Liver: inflammation, peritoneal, severity grade (Balb/c mice; IA BT2 3 mg/kg (Day 0)): 0
- Liver: mineralisation, subcapsular, severity grade (Balb/c mice; IA BT2 3 mg/kg (Day 0)): 0
- Lung: osseous metaplasia, severity grade (Balb/c mice; IA BT2 3 mg/kg (Day 0)): 0
- Spleen, severity grade (Balb/c mice; IA BT2 3 mg/kg (Day 0)): 0
- Kidney (left and right): inflammation, interstitial, severity grade (Balb/c mice; [2]): 0 and 1
- Kidney (left and right): inflammation, renal pelvis, severity grade (Balb/c mice; [2]): 2 and 0
- Liver: inflammation, parenchymal, severity grade (Balb/c mice; [2]): 1 and 0
- Eye (left and right), severity grade (Balb/c mice; IA BT2 30 mg/kg (Day 0)): 0
- Heart, severity grade (Balb/c mice; IA BT2 30 mg/kg (Day 0)): 0
- Kidney (left and right): inflammation, interstitial, severity grade (Balb/c mice; IA BT2 30 mg/kg (Day 0)): 0
- Kidney (left and right): inflammation, renal pelvis, severity grade (Balb/c mice; IA BT2 30 mg/kg (Day 0)): 0
- Liver: inflammation, parenchymal, severity grade (Balb/c mice; IA BT2 30 mg/kg (Day 0)): 1
- Liver: inflammation, peritoneal, severity grade (Balb/c mice; IA BT2 30 mg/kg (Day 0)): 0
- Liver: mineralisation, subcapsular, severity grade (Balb/c mice; IA BT2 30 mg/kg (Day 0)): 0
- Lung: osseous metaplasia, severity grade (Balb/c mice; IA BT2 30 mg/kg (Day 0)): 0
- Spleen, severity grade (Balb/c mice; IA BT2 30 mg/kg (Day 0)): 0
- Eye (left and right), severity grade (Balb/c mice; IP BT2 3 mg/kg (Days 0 and 5)): 0
- Heart, severity grade (Balb/c mice; IP BT2 3 mg/kg (Days 0 and 5)): 0
- Kidney (left and right): inflammation, interstitial, severity grade (Balb/c mice; IP BT2 3 mg/kg (Days 0 and 5)): 0
- Kidney (left and right): inflammation, renal pelvis, severity grade (Balb/c mice; IP BT2 3 mg/kg (Days 0 and 5)): 0
- Liver: mineralisation, subcapsular, severity grade (Balb/c mice; IP BT2 3 mg/kg (Days 0 and 5)): 0
- Spleen, severity grade (Balb/c mice; IP BT2 3 mg/kg (Days 0 and 5)): 0
- Liver: inflammation, parenchymal, severity grade (Balb/c mice; [3]): 1 and 0
- Liver: inflammation, peritoneal, severity grade (Balb/c mice; [3]): 0 and 2 and 1
- Lung: osseous metaplasia, severity grade (Balb/c mice; [3]): 0 and 1
- Eye (left and right), severity grade (Balb/c mice; IP BT2 30 mg/kg (Days 0 and 5)): 0
- Heart, severity grade (Balb/c mice; IP BT2 30 mg/kg (Days 0 and 5)): 0
- Kidney (left and right): inflammation, interstitial, severity grade (Balb/c mice; IP BT2 30 mg/kg (Days 0 and 5)): 0
- Lung: osseous metaplasia, severity grade (Balb/c mice; IP BT2 30 mg/kg (Days 0 and 5)): 0
- Spleen, severity grade (Balb/c mice; IP BT2 30 mg/kg (Days 0 and 5)): 0
- Kidney (left and right): inflammation, renal pelvis, severity grade (Balb/c mice; [4]): 0 and 4
- Liver: inflammation, parenchymal, severity grade (Balb/c mice; [4]): 1 and 2
- Liver: inflammation, peritoneal, severity grade (Balb/c mice; [4]): 1 and 2
- Liver: mineralisation, subcapsular, severity grade (Balb/c mice; [4]): 0 and 1
- retinal FosB immunostaining (FosB): inhibited retinal FosB immunostaining
